What was measured:
[1] = Cumulative urinary excretion after IV and oral dosing in piglets; details: for fraction of parent dose recovered in urine as glucuronide, mean±SD / fraction of parent dose recovered in urine as glucuronide, range: by 24 h
Description: Blood samples were collected in heparinized polypropylene tubes, immediately chilled in ice and centrifuged for 10 min at 3,000×g at 4°C, and the supernatant plasma was stored in polypropylene tubes at −20°C until assay. Total urine was filtered through a nylon mesh ( 250μm ) and collected in glass containers and chilled in ice. The volume of each urine sample and the sampling time were recorded. A urine sample was immediately chilled in ice and centrifuged for 10 min at 3,000×g at 4°C and stored at −20°C until assayed.
Analytes were quantified by Acquity UPLC-MS/MS (Waters Corporation).
All TK analyses were performed using the Phoenix® NLME (version 8.0; Pharsight Corporation). The plasma mass concentrations were converted into molar concentrations before analysis.

[2] = Population semiphysiologically based 9-compartment TK model (NLME) of plasma and urine data in piglets; details: for tvK25, rate constant liver to plasma for the glucuronide, Mean / tvK50, glucuronide elimination rate constant from plasma to urine, Mean / tvK56, distribution rate constant, Mean / tvK65, distribution rate constant, Mean / tvK105, rate constant of glucuronide formed by enterocytes absorbed into the systemic circulation, Mean / tvV, volume of the central compartment, Mean: bootstrap mean; for tvK25, rate constant liver to plasma for the glucuronide, Median / tvK50, glucuronide elimination rate constant from plasma to urine, Median / tvK56, distribution rate constant, Median / tvK65, distribution rate constant, Median / tvK105, rate constant of glucuronide formed by enterocytes absorbed into the systemic circulation, Median / tvV, volume of the central compartment, Median: bootstrap median; for mean volume of the central compartment: pig, in vivo; for tvV, volume of the central compartment, Mean / tvV, volume of the central compartment, Median: population primary parameter
Description: The NLME model was therefore developed by combining the plasma and urinary data sets from the five TK experiments carried out in piglets, except for the urinary BPA concentration obtained after oral administration of BPA.
Different compartmental models and submodels were tested and compared using the likelihood ratio test (LRT). The primary parameters of the model, namely the volumes of distribution ( VBPA , VBPAG , VBPS , VBPSG ) and the first-order rate constants ( Kij ) and their associated precisions [standard error (SE)] were estimated by minimizing an objective function value (OFV) expressed as minus twice the log of the likelihood estimation ( −2LL ).
The between-subject variability (BSV) of the parameters was evaluated using the exponential model θparameter_i=θtv_parameter×exp(ηi) , where θparameter_i is the parameter estimated for the i^th individual, θtv_parameter is the typical population value of the parameter, and ηi is the deviation associated with the i^th individual from the corresponding value of the parameter at the population level. The distribution of ηi was assumed to be normal with a mean of 0 and a variance ω² . The BSV was reported as a coefficient of variation (CV) in the original scale CV(%)=100× exp (ω^2)−1 .
The residual variance was modeled using a combined additive and proportional error model Cobsij=Cpredij(1+ε1ij)+ε2ij where Cobsij and Cpredij are respectively the j^th observed and predicted concentrations for the i^th individual and ε1ij and ε2ij the multiplicative and additive residual errors.
The bootstrap tool (20 replicates) was used to evaluate the mean, median, SE, and coefficient of variation of the parameter estimates. The predictive ability of the model was checked graphically by plotting Visual Predictive Check plots to compare the observed data with the selected quantiles (here 20th, 50th and 80th percentiles) of data simulated using the model and obtained from 200–1,000 replicates from each animal based on the structure of the original data (i.e., dosing, timing and number of samples).
For the LRT test, the critical value of the χ^2 distribution considered for a given nominal risk and a given number of degrees of freedom was obtained using the Excel function CHISQ.INV.RT().
Figure 1. Schematic representation of the compartmental model. […] The link between the two central compartments was modeled with a compartment (CP2) that should be viewed as the liver. […] The fraction of absorbed BPA that is not hepatically transformed reaches the CP3 via K23 . The exchanges between CP2 and CP3 are bilateral, K32 being the rate constant between CP3 and CP2 and K23 the rate constant between CP2 and CP3. […] It was assumed that no phase-two metabolite other than BPAG (BPSG) was formed.
(12) Bioavailability=K12/K12+K110+K10×(1−K25/K25+K23) with K10 , K12 , K110 , K23; K25 as defined above.

[3] = Noncompartmental toxicokinetic analysis of plasma after oral (gavage) dosing in piglets; details: plasma, mean±SD; for Cmax/dose: oral BPA 438 or 200 μmol/kg (n=12) or oral BPS 40 or 200 μmol/kg (n=10); for AUClast/dose / Tmax: oral BPA or BPS dosing
Description: Table 1 summarizes the protocol of the experiments and the plasma and urine datasets further considered for TK analyses.
For administrations by gavage, BPA powder was dissolved in ethanol–corn oil (1:9, vol:vol) at 100mg/mL (Exp. 1).
(§1) The plasma analytes concentration–time data from individual piglets were used to derive the maximum concentration (Cmax), and the time to maximum concentration (Tmax). The area under the plasma concentration–time curves from dosing time to the time of the last measurable concentration ( AUC0–tlast ) were calculated using the linear trapezoidal rule (Equation 1). (1) AUC0–tlast=∑0tlast(Ci−1+Ci/2)×(ti−ti−1) where Ci is the concentration obtained at the time i ( ti ).
(§2) The area under the plasma concentration time curve from t=0 to infinity ( AUC0–inf ) was obtained using Equation 2. (2) AUC0–inf=AUC0–tlast+AUCtlast–inf where AUCtlast–inf is the area extrapolated from the last observation to infinity, calculated according to Equation 3: (3) AUCtlast–inf=Clast/λz where Clast is the last observed quantifiable plasma concentration, and λz is the slope of the terminal phase, as estimated by linear regression using the best fit option of Phoenix®.

[4] = Noncompartmental toxicokinetic analysis of plasma after IV dosing in piglets; details: for time after which plasma concentrations were below the LOQ: after IV BPA and BPS administration; for time of maximal plasma glucuronide concentration: after IV BPA and BPS dosing; for Cmax/dose / AUC0-tlast/dose / Tmax: plasma, mean±SD; for Cmax/dose: IV BPA 21.9 or 20 μmol/kg (n=15) or IV BPS 20 μmol/kg (n=16), glucuronides after parent dosing; for AUC0-tlast/dose: IV BPA or BPS dosing; for Tmax: glucuronide after IV BPA or BPS dosing
Description: Table 1 summarizes the protocol of the experiments and the plasma and urine datasets further considered for TK analyses. A first experiment (Exp. 1) was performed in 8 male piglets age 42 d ( 20.8±1.6kg BW) to investigate oral BPA TK. […] BPA data obtained after IV BPA administrations had already been used to evaluate human BPA clearance using an allometric approach ([Collet et al. 2015]).
For the IV administrations, BPA powder was dissolved in ethanol–propylene glycol (1:49, vol:vol) at 50mg/mL (Exp.1 and 2) and in ethanol–saline (1:2, vol:vol) at 23mg/mL (Exp. 5).
During the first 24 h of sampling, the piglets were housed individually in stainless steel cages.
as §1, §2

[5] = IV BPA (n=7) or IV BPS (n=16) dosing
[6] = oral BPA (n=4) or oral BPS (n=10) dosing

SMILES	fraction of parent dose recovered in urine as glucuronide, mean±SD [1, 5] [%]	fraction of parent dose recovered in urine as glucuronide, range ([1]; IV BPA or BPS dosing)	fraction of parent dose recovered in urine as glucuronide, mean±SD [1, 6] [%]	fraction of parent dose recovered in urine as glucuronide, range ([1]; oral BPA or BPS dosing)	tvK25, rate constant liver to plasma for the glucuronide, Mean [2] [h⁻¹]	tvK50, glucuronide elimination rate constant from plasma to urine, Mean [2] [h⁻¹]	tvK56, distribution rate constant, Mean [2] [h⁻¹]	tvK65, distribution rate constant, Mean [2] [h⁻¹]	tvK105, rate constant of glucuronide formed by enterocytes absorbed into the systemic circulation, Mean [2] [h⁻¹]	tvK25, rate constant liver to plasma for the glucuronide, Median [2] [h⁻¹]	tvK50, glucuronide elimination rate constant from plasma to urine, Median [2] [h⁻¹]	tvK56, distribution rate constant, Median [2] [h⁻¹]	tvK65, distribution rate constant, Median [2] [h⁻¹]	tvK105, rate constant of glucuronide formed by enterocytes absorbed into the systemic circulation, Median [2] [h⁻¹]	mean volume of the central compartment [2] [L/kg]	tvV, volume of the central compartment, Mean [2] [L/kg]	tvV, volume of the central compartment, Median [2] [L/kg]	Cmax/dose [3] [μmol/L per μmol/kg BW]	AUClast/dose [3] [μmol×h/L per μmol/kg BW]	Tmax [3] [min]	further results
CC(C)(c1ccc(O)cc1)c1ccc(O[C@@H]2O[C@H](C(=O)O)[C@@H](O)[C@H](O)[C@H]2O)cc1 [BPAG, Bisphenol A glucuronide]	97.0±27.6	63.1–135.7%	62.2±15.8	49.5–80.2%	137.08	2.750	1.45	0.015	0.207	91.87	2.547	1.45	0.015	0.217	0.11	0.107	0.112	0.58±0.34	1.75±0.73	74.4 ± 64.2	time after which plasma concentrations were below the LOQ [4]: 12 to 24 h; time of maximal plasma glucuronide concentration [4]: about 20 min; Cmax/dose [4]: 1.80±0.85 μmol/L per μmol/kg BW; AUC0-tlast/dose [4]: 2.04±0.58 μmol×h/L per μmol/kg; Tmax [4]: 21 ± 20.4 min
O=S(=O)(c1ccc(O)cc1)c1ccc(O)cc1 [BPS, bisphenol S]	–	–	–	–	–	–	–	–	–	–	–	–	–	–	–	–	–	–	–	–	part of the dose eliminated in urine ([1]; 3 h after dosing): About half; unconjugated compound in urine, fraction of IV dose ([1]; IV BPA and BPS doses): 0.027±0.0084%
O=C([O-])[C@H]1O[C@@H](Oc2ccc(S(=O)(=O)c3ccc(O)cc3)cc2)[C@H](O)[C@@H](O)[C@@H]1O.[Na+] [BPSG, Bis(4-hydroxyphenyl) Sulfone O-β-D-Glucuronide-Sodium Salt]	76.8±20.1	36.3–107.9%	86.5±23.9	65.5–126.8%	66.6	1.818	0.730	0.006	0.534	62.147	1.832	0.655	0.006	0.523	0.14	0.135	0.137	2.94±4.78	2.87±0.99	43.8 ± 18	fraction of the IV BPSG dose recovered in urine, range ([1]; 24 h post dosing, IV BPSG): 40.1–69.8%; mean fraction of the IV BPSG dose recovered in urine ([1]; 24 h post dosing, IV BPSG): 59.0±9.96%; time after which plasma concentrations were below the LOQ [4]: 8 to 12 h; time of maximal plasma glucuronide concentration [4]: about 20 min; Cmax/dose [4]: 2.55±0.58 μmol/L per μmol/kg BW; AUC0-tlast/dose [4]: 2.59±0.77 μmol×h/L per μmol/kg; Tmax [4]: 17.4 ± 11.4 min

Reference: paper PMC6792350 (Environmental Health Perspectives, 2019)
